According to PMC8878452, “A Tale of Toxin Promiscuity: The Versatile Pharmacological Effects of Hcr 1b-2 Sea Anemone Peptide on Voltage-Gated Ion Channels” (Marine Drugs, 2022):
Bridges are numbered along the chain shown (N, C = ends). Where no end group is shown, it is not given here.

Columns and labels:
rKv1.3 = assay: TEVC, Kv1.3 in Xenopus oocytes; type: cell-based, rat; conditions: 1 µM, ND96 pH 7.4, 18–22 °C, n ≥ 3
Source text: (§1) For the expression of Kv channels (rKv1.1, rKv1.2, rKv1.3, rKv1.4, rK1.5, rKv1.6, hKv2.1, hKv3.1, rKv4.2, hKv7.1, hKv7.2/7.3, hKv7.4, KQT1 (from the roundworm Caenorhabditis elegans), hKv10.1 (hEAG1), hKv11.1 (hERG1), and Shaker, from Drosophila melanogaster), Nav channels (rNav1.1, rNav1.2, rNav1.3, rNav1.4, hNav1.5, mNav1.6, hNav1.7, hNav1.8, and BgNav (from the cockroach Blattella germanica), as well as the hβ1 and rβ1 subunits, and Cav channels (rCav3.1, hCav3.2, and rCav3.3) in Xenopus oocytes, the linearized plasmids were transcribed using the T7 or SP6 mMESSAGEmMACHINE transcription kit (Ambion, Austin, TX, USA). Mature female animals were purchased from Nasco (Fort Atkinson, WI, USA) and were housed in the Aquatic Facility (KU Leuven) in compliance with the regulations of the European Union (EU) concerning the welfare of laboratory animals as declared in Directive 2010/63/EU. The use of X. laevis oocytes was approved by the Animal Ethics Committee of the KU Leuven, with the license number P186/2019. […]
(§2) Whole-cell currents of oocytes were recorded 1 to 3 days after RNA injection. […] The current–voltage relationships were determined by 50 ms step depolarizations between −90 and +65 mV using 5 or 10 mV increments. All electrophysiological data were analyzed following the procedures described by Peigneur et al., 2012 [20].
(§3) All values were expressed as means ± SEM. […]

Kv1.5 = assay: TEVC, Kv1.5 in Xenopus oocytes; type: cell-based, rat; conditions: 1 µM, n ≥ 3
Source text: as §1, §2, §3

hKv3.1 = assay: TEVC, Kv3.1 in Xenopus oocytes; type: cell-based, human; conditions: 1 µM, ND96 pH 7.4, 18–22 °C, n ≥ 3
Source text: as §1, §2, §3

KQT1 = assay: TEVC, KQT1 in Xenopus oocytes; type: cell-based, Caenorhabditis elegans
Source text: (§4) For the expression of Kv channels (rKv1.1, rKv1.2, rKv1.3, rKv1.4, rK1.5, rKv1.6, hKv2.1, hKv3.1, rKv4.2, hKv7.1, hKv7.2/7.3, hKv7.4, KQT1 (from the roundworm Caenorhabditis elegans), hKv10.1 (hEAG1), hKv11.1 (hERG1), and Shaker, from Drosophila melanogaster), Nav channels (rNav1.1, rNav1.2, rNav1.3, rNav1.4, hNav1.5, mNav1.6, hNav1.7, hNav1.8, and BgNav (from the cockroach Blattella germanica), as well as the hβ1 and rβ1 subunits, and Cav channels (rCav3.1, hCav3.2, and rCav3.3) in Xenopus oocytes, the linearized plasmids were transcribed using the T7 or SP6 mMESSAGEmMACHINE transcription kit (Ambion, Austin, TX, USA). Mature female animals were purchased from Nasco (Fort Atkinson, WI, USA) and were housed in the Aquatic Facility (KU Leuven) in compliance with the regulations of the European Union (EU) concerning the welfare of laboratory animals as declared in Directive 2010/63/EU. The use of X. laevis oocytes was approved by the Animal Ethics Committee of the KU Leuven, with the license number P186/2019.
(§5) Stage V–VI oocytes were collected from anesthetized female X. laevis frog as previously described, with the frogs anesthetized by placement in a 0.1% tricaine solution (amino benzoic acid ethyl ester; Merck, Kenilworth, NJ, USA). Oocyte microinjection was performed using a microinjector (Drummond Scientifc®, Broomall, PA, USA), with a programmed cRNA injection volume of 4–50 nL, depending on channel subtype. The oocytes were incubated in ND96 solution (96 mM NaCl; 2 mM KCl; 1.8 mM CaCl2; 2 mM MgCl2, and 5 mM HEPES, pH 7.4), supplemented with 50 mg/L of gentamicin sulfate.
(§6) Electrophysiological measurements were performed at room temperature (18–22 °C) using the two-electrode voltage-clamp (TEVC) technique. Data were obtained using a GeneClamp 500 amplifier (Axon Instruments®, Burlingame, CA, USA) and Clampex9 software (Axon Instruments®, USA) was responsible for data acquisition and storage. Glass micropipettes were produced using glass capillaries (borosilicate WPI 1B120-6) and drawn in a WPI (World Precision Instruments®, Sarasota, FL, USA) manual stretcher. The bath and perfusion solutions were either the previously described ND96 (Nav and Kv channels) or calcium-free ND96 supplemented with 10 mM BaCl2 (Cav channels).
(§7) Whole-cell currents of oocytes were recorded 1 to 3 days after RNA injection. The current and voltage electrodes were filled with 3 M KCl, and their resistance was adjusted from 1.0 to 2.5 MΩ. Currents were sampled at 20 kHz (Nav channels) and 10 kHz (Kv and Cav channels) and filtered using a four-pole Bessel low-pass Bessel filter at 1 kHz for sodium and […] for potassium and calcium, except for the hERG ion channel in which the currents were filtered at 1 kHz. Leak subtraction was performed using a P/4 protocol. Kv1.x currents were evoked by 500 ms depolarizations to 0 mV, followed by a 500 ms pulse to −50 mV from a holding potential of −90 mV. Kv2.1, Kv3.1, Kv4.2, Kv7.x, and KQT1 currents were elicited by 700 ms pulses to +20 mV from a holding potential of −90 mV. Current traces of the hERG1 channel were elicited by applying a +40 mV prepulse for 2 s, followed by a step of −120 mV for 2 s. […] The current–voltage relationships were determined by 50 ms step depolarizations between −90 and +65 mV using 5 or 10 mV increments. All electrophysiological data were analyzed following the procedures described by Peigneur et al., 2012 [20].
as §3

Shaker = assay: TEVC, Shaker in Xenopus oocytes; type: cell-based, Drosophila melanogaster; conditions: 1 µM, ND96 pH 7.4, 18–22 °C, n ≥ 3
Source text: as §1, §2, §3

hNav1.5 = assay: TEVC, Nav1.5 in Xenopus oocytes; type: cell-based, human
Source text: as §4, §5, §6
Whole-cell currents of oocytes were recorded 1 to 3 days after RNA injection. The current and voltage electrodes were filled with 3 M KCl, and their resistance was adjusted from 1.0 to 2.5 MΩ. Currents were sampled at 20 kHz (Nav channels) and 10 kHz (Kv and Cav channels) and filtered using a four-pole Bessel low-pass Bessel filter at 1 kHz for sodium and […] for potassium and calcium, except for the hERG ion channel in which the currents were filtered at 1 kHz. Leak subtraction was performed using a P/4 protocol. Kv1.x currents were evoked by 500 ms depolarizations to 0 mV, followed by a 500 ms pulse to −50 mV from a holding potential of −90 mV. Kv2.1, Kv3.1, Kv4.2, Kv7.x, and KQT1 currents were elicited by 700 ms pulses to +20 mV from a holding potential of −90 mV. Current traces of the hERG1 channel were elicited by applying a +40 mV prepulse for 2 s, followed by a step of −120 mV for 2 s. Current traces of hEAG1 were elicited by a 2 s depolarization to 0 mV from a holding potential of −90 mV. Sodium current traces were evoked by a 100 ms depolarization to 0 mV. For Cav channels, current traces were elicited by 700 ms depolarizations to −20 mV from a holding potential of −90 mV. The current–voltage relationships were determined by 50 ms step depolarizations between −90 and +65 mV using 5 or 10 mV increments. All electrophysiological data were analyzed following the procedures described by Peigneur et al., 2012 [20].
All values were expressed as means ± SEM. Differences in ionic currents between the control and toxin conditions were compared by a one-way ANOVA, followed by Dunnett’s multiple comparisons test. Differences were considered statistically significant when […].

mNav1.6 = assay: TEVC, Nav1.6 in Xenopus oocytes; type: cell-based, mouse
Source text: as §4, §5, §6, §7, §3

hCav3.2 = assay: TEVC, Cav3.2 in Xenopus oocytes; type: cell-based, human
Source text: as §4, §5, §6, §7, §3

ASIC = system: ASIC; parameters: method as in 2 sources, one per row (each row's own in cited_ref): ref 17 = [17]; PMID 29684594; doi:10.1016/j.peptides.2018.04.013; 17. Kalina R. Gladkikh I. Dmitrenok P. Chernikov O. Koshelev S. Kvetkina A. Kozlov S. Kozlovskaya E. Monastyrnaya M. New APETx-like peptides from sea anemone Heteractis crispa modulate ASIC1a channels ||| ref 22 = [22]; PMID 15044953; doi:10.1038/sj.emboj.7600177; 22. Diochot S. Baron A. Rash L.D. Deval E. Escoubas P. Scarzello S. Salinas M. Lazdunski M. A new sea anemone peptide, APETx2, inhibits ASIC3, a major acid-sensitive channel in sensory neurons EMBO J.; conditions: cited from earlier work
[1] = 1 µM, 100 ms depolarization to 0 mV, mean ± SEM, n ≥ 3
[2] = 1 µM vs control (ND96 Ca2+ free)

**Q.** Which “effect on potassium current, Kv1.3” value (rKv1.3) does the source give for “GTPCKCHGYIGVYWFMLAGCPNGYGYNLSCPYFLGICCVKK (disulfide 4-37, 6-30, 20-38 (inferred)) [Hcr 1b-2]” here?
**A.** The value was “inhibition”.

**Q.** What about the “activity (inhibition of current), Kv1.5” value (Kv1.5; 500 ms depolarization to 0 mV from −90 mV, mean ± SEM) of the same sequence?
**A.** Its value is 41.9 ± 4.7%.

**Q.** And the “effect on potassium current, Kv1.5” value (Kv1.5; TEVC, ND96 pH 7.4, 18–22 °C)?
**A.** Its value is “inhibition”.

**Q.** What about the “effect on potassium current, Kv3.1” value (hKv3.1) of the same sequence?
**A.** Its value is “not active”.

**Q.** What about the “gating-modifier effect (voltage-current relationship), KQT1” value (KQT1; 1 µM) of the same sequence?
**A.** The value was “stronger shift”.

**Q.** What about the “Shift in Vhalf activation, KQT1” value (KQT1; 1 µM vs control (ND96)) of the same sequence?
**A.** The value was 7.9 mV.

**Q.** And the “activity (inhibition of current), KQT1” value (KQT1; 1 µM, 700 ms pulse to +20 mV from −90 mV, mean ± SEM, n ≥ 3)?
**A.** The value was 33.4 ± 3.3%.

**Q.** And the “effect on potassium current, KQT1” value (KQT1; 1 µM, TEVC, ND96 pH 7.4, 18–22 °C, n ≥ 3)?
**A.** Its value is “inhibition”.

**Q.** And the “Vhalf activation, KQT1” value (KQT1; 1 µM, control (ND96) 14.6 ± 0.4, mean ± SEM)?
**A.** Its value is 22.4 ± 0.5 mV.

**Q.** What about the “effect on potassium current, Shaker” value (Shaker) of the same sequence?
**A.** Its value is “activation”.

**Q.** And the “effect on activation or inactivation, Nav1.5” value (hNav1.5; 1 µM)?
**A.** Its value is “no significant effect”.

**Q.** What about the “Shift in Vhalf activation, Nav1.5” value (hNav1.5; 1 µM vs control (ND96)) of the same sequence?
**A.** Its value is 3.8 mV.

**Q.** And the “Shift in Vhalf inactivation, Nav1.5” value (hNav1.5; 1 µM vs control (ND96))?
**A.** Its value is −3.2 mV.

**Q.** What about the “reduction of peak amplitude (INa), Nav1.5” value (hNav1.5; [1]) of the same sequence?
**A.** The value was 41.6 ± 5.9%.

**Q.** What about the “Vhalf activation, Nav1.5” value (hNav1.5; 1 µM, control (ND96) −38.5 ± 0.1, mean ± SEM, n ≥ 3) of the same sequence?
**A.** The value was −34.7 ± 0.1 mV.

**Q.** And the “Vhalf inactivation, Nav1.5” value (hNav1.5; 1 µM, control (ND96) −66.0 ± 0.2, mean ± SEM, n ≥ 3)?
**A.** Its value is −69.2 ± 0.2 mV.

**Q.** And the “Shift in Vhalf activation, Nav1.6” value (mNav1.6; 1 µM vs control (ND96))?
**A.** Its value is 3.5 mV.

**Q.** And the “Shift in Vhalf inactivation, Nav1.6” value (mNav1.6; 1 µM vs control (ND96))?
**A.** Its value is −7.6 mV.

**Q.** What about the “reduction of peak amplitude (INa), Nav1.6” value (mNav1.6; [1]) of the same sequence?
**A.** Its value is 41.8 ± 7.1%.

**Q.** And the “Vhalf activation, Nav1.6” value (mNav1.6; 1 µM, control (ND96) −23.5 ± 0.1, mean ± SEM, n ≥ 3)?
**A.** Its value is −20.0 ± 0.1 mV.

**Q.** And the “Vhalf inactivation, Nav1.6” value (mNav1.6; 1 µM, control (ND96) −49.1 ± 0.3, mean ± SEM, n ≥ 3)?
**A.** Its value is −56.7 ± 0.4 mV.

**Q.** What about the “Shift in Vhalf activation, Cav3.2” value (hCav3.2; [2]) of the same sequence?
**A.** Its value is −0.4 mV.

**Q.** And the “Shift in Vhalf inactivation, Cav3.2” value (hCav3.2; [2])?
**A.** The value was 0.5 mV.

**Q.** And the “inhibition, Cav3.2” value (hCav3.2; 1 µM, calcium-free ND96 + 10 mM BaCl2, 700 ms depolarization to −20 mV from −90 mV, mean ± SEM, n ≥ 3)?
**A.** Its value is 35.1 ± 0.7%.

**Q.** What about the “Vhalf activation, Cav3.2” value (hCav3.2; 1 µM, control (ND96 Ca2+ free) −31.9 ± 0.1, mean ± SEM, n ≥ 3) of the same sequence?
**A.** The value was −32.3 ± 0.2 mV.

**Q.** What about the “Vhalf inactivation, Cav3.2” value (hCav3.2; 1 µM, control (ND96 Ca2+ free) −46.6 ± 0.8, mean ± SEM, n ≥ 3) of the same sequence?
**A.** Its value is −46.1 ± 0.6 mV.

**Q.** And the ASIC inhibition (ASIC)?
**A.** The ASIC inhibition was “ASIC inhibitors”.
